Test results as given in article PMC4413647, “Simultaneous targeting of androgen receptor (AR) and MAPK-interacting kinases (MNKs) by novel retinamides inhibits growth of human prostate cancer cell lines” (Oncotarget, 2014).
Like-named read-outs stand apart in the source and are kept apart here.

Experiments:
22Rv1 cells = test: MTT cell proliferation assay, 7 d, 22Rv1; type: cell-based; details: Homo sapiens, 22Rv1, 168 h, 7 d treatment
Text: (§1) Androgen-dependent (LNCaP), androgen-independent (PC-3) and castration resistant (C4-2B and 22Rv1) human prostate carcinoma cells were procured from American Type Culture Collection, Manassas, VA, USA and maintained in RPMI 1640 media (Gibco-Life Technologies, Grand Island, NY, USA) supplemented with 10% fetal bovine serum and 1% penicillin/streptomycin. […] Immortalized untransformed prostate epithelial cells, PWR1E from American Type Culture Collection were maintained in serum-free Keratinocyte media (Gibco) supplemented with epidermal growth factor and bovine pituitary extract. All cell lines were maintained in a 37 °C/5% CO2 humidified atmosphere.
(§2) Cell proliferation assay was performed as described previously. For cell growth experiment, cells were treated with the NRs for 7 days. MTT assay was performed at the end of the experiment. Calculations of combination indices were done using the Calcusyn program (Biosoft, Cambridge, United Kingdom). For colony formation assay, cells were plated 1000 per well in complete media and allowed to adhere for 24 h. The next day cells were treated with indicated compounds (5 μM). After 24 h compound containing media were removed, and cells were allowed to form colonies in complete media. Approximately 2 weeks later the colonies were fixed, stained with 0.5% crystal violet (sigma) for 30 min and counted manually. Results represent the mean ± standard deviation of three independent experiments.

LNCaP cells = test: MTT cell proliferation assay, 7 d, LNCaP; type: cell-based, human; details: Homo sapiens, LNCaP, 168 h, 7 d treatment
Text: as §1, §2

MR49F cells = test: MTT growth inhibition in Enzalutamide resistant MR49F cells; type: cell-based, human; details: for GI50: Homo sapiens, MR49F
Method: Figure 2 Effect of NRs on PCa cell growth and colony formation (A) Representative photographs of colonies formed in PCa cells at 14th day after initial treatment with specified compounds (5 μmol/L). Colonies were fixed with methanol and stained with crystal violet. (B) Data represents the mean ± S.E from three independent experiments. *, P< 0.05; ♣, P<0.01 compared to vehicle treated control. […] NRs that had promising inhibitory effect on cell proliferation on LNCaP cells were tested for their growth inhibitory effect in MR49F cells in comparison with Casodex and Abiraterone acetate by MTT assay.
as §1, §2

PC-3 cells [1] = test: MTT cell proliferation assay, 7 d, PC-3; type: cell-based; details: Homo sapiens, PC-3, 168 h, 7 d treatment
Text: as §1, §2

PWR-1E cells = test: MTT cell proliferation assay, 7 d, PWR-1E; type: cell-based; details: Homo sapiens, 168 h, immortalized untransformed prostate cells, 7 d treatment
Text: as §1, §2

C4-2B cells = test: MTT cell proliferation assay, 7 d, C4-2B; type: cell-based; details: Homo sapiens, 168 h, 7 d treatment
Text: as §1, §2

PCa cells = test: MTT cell viability in PCa cells (LNCaP, PC-3, C4-2B, 22Rv1); type: cell-based, human; details: for GI50: Homo sapiens, range over PCa cell lines; for growth inhibitory effect or differential sensitivity: PCa cells vs untransformed cells
Method: as §2

Bax, cleaved PARP-1 = test: Western blot of Bax and cleaved PARP-1 in PCa cells; type: cell-based, human; details: 20 μM, 24 h, among the lead NRs
Method: Figure 4 Effect of NRs on cell cycle and apoptosis (A) LNCaP cells treated with 5 μM of NRs and other compounds for 24 h were stained with PI and analysed with a FACS calibur flow cytometer. (B) Total cell lysates from PCa cells treated with 20 μM of NRs were separated by SDS-PAGE and probed with cyclin D1 and B antibodies. […] (C) LNCaP cells were treated with indicated compounds (5 μmol/L) for 24 h and apoptosis induction was examined by oligonucleosomal fragmentation. Data are shown relative to vehicle treated control and the bars are means of three replicate determinations plus standard deviations. *, P< 0.01; ♣, P<0.05 compared with vehicle treated control. (D) PCa cells as indicated were seeded in 24 well plate, and treated with 5 μmol/L of NRs the subsequent day. After 24 h the plates were analyzed for apoptotic and viable cells using acridine orange/ethidium bromide staining. (E) Western blot analysis of apoptosis associated Bax and cPARP in PCa cells treated with NRs (20 μmol/L) for 24 h. (F) Apoptosis induction in LNCaP cells treated with 5 μmol/L of VNLG-147 and -152 in the presence or absence of ZVAD (5 μmol/L) was assessed by oligonucleosomal fragmentation after 24 h incubation. *, P< 0.05 compared with vehicle treated control. […]

PC-3 cells [2] = test: Boyden chamber matrigel invasion assay; type: cell-based, human; details: PC-3, 5 μM, 24 h
Method: Figure 5 Anti-migratory and anti-invasive potential of NRs (A) Effect of NRs treatment (5 μmol/L) on PC-3 cell migration was assessed by wound healing assay after 24 h of wound formation. Representative photomicrographs of initial and final wounds are shown at 100x magnification. (B) Effect of NRs on PC-3 cell invasion was evaluated by transwell migration assay. PC-3 cells were seeded on matrigel coated boyden chamber and treated with NRs (5 μmol/L, 24 h). Photographs represent the extent of cell invasion in each of the treated cells. (C) Western blot analysis of the effect of NRs on the expression of cadherins in PC-3 cells. Cells were treated with indicated compound 20 μmol/L for 24 h.
The invasion assay in PC-3 cells was performed using Matrigel (BD Biosciences, Bedford, MA, USA)-coated transwell cell culture chambers (8 μm pore size, EMD Millipore, Temecula, CA, USA) as described previously (43). Briefly, PC-3 cells (5 × 10^4 cells/well) were cultured in the upper chamber of the transwell insert for 24 h in serum-free RPMI-1640 medium. The cells were then treated with 5 μM of indicated compounds for 24 h. RPMI-1640 medium containing 10% FBS was placed in the lower chamber. At the end of incubation, the top surface of the non-migrated cells were scraped gently with cotton swabs and the cells on the lower surface of the membrane (migrated cells) were fixed for 15 min with cold methanol and stained with crystal violet. Cells that had migrated to the bottom of the membrane were visualized and counted using an inverted microscope. For each replicate (n = 3), cells in three randomly selected fields were counted and averaged.

PC-3 cells [3] = test: Wound healing migration assay; type: cell-based, human; details: 5 μM, 24 h
Method: Figure 5 Anti-migratory and anti-invasive potential of NRs (A) Effect of NRs treatment (5 μmol/L) on PC-3 cell migration was assessed by wound healing assay after 24 h of wound formation. Representative photomicrographs of initial and final wounds are shown at 100x magnification. (B) Effect of NRs on PC-3 cell invasion was evaluated by transwell migration assay. PC-3 cells were seeded on matrigel coated boyden chamber and treated with NRs (5 μmol/L, 24 h). Photographs represent the extent of cell invasion in each of the treated cells. (C) Western blot analysis of the effect of NRs on the expression of cadherins in PC-3 cells. Cells were treated with indicated compound 20 μmol/L for 24 h. […] For wound healing assay highly metastatic PC-3 cells were plated in a 24 well plate at a seeding density of 5 × 10^5 cells/ well and allowed to form a confluent monolayer for 24 h. Cells were made dormant by pretreating with 0.5 μmol/L mitomycin C for 2 h to ensure that wounds are filled due to cell migration and not by cell proliferation. Subsequently, the monolayer was scratched with a pipette tip, washed with media to remove floating cells, and photographed (time 0 h). Cells were then treated with indicated compounds (5 μM) and the experiment was terminated as soon as wound was completely filled in vehicle treated controls. Cells were then photographed again using Nikon TE2000 microscope at three randomly selected sites per well [43].

[4] = DHT induced, read-out: GI50 LNCaP, DHT induced
[5] = read-out: GI50 MR49F (Figure 2C)

SMILES | GI50 (22Rv1 cells) [µM] | GI50 (LNCaP cells; read-out: GI50 LNCaP) [µM] | GI50 (LNCaP cells; [4]) [µM] | GI50 (MR49F cells; read-out: GI50 MR49F) [µM] | GI50 (PC-3 cells [1]) [µM] | GI50 (PWR-1E cells) [µM] | GI50 (C4-2B cells) [µM] | GI50 (MR49F cells; [5]) [µM] | effect on growth of MR49F cells (MR49F cells; up to a concentration of 100 μmol/L) | GI50 (PCa cells) [µM] | growth inhibitory effect or differential sensitivity (PCa cells) | efficacy in inducing PARP cleavage and/or increasing Bax expression (Bax, cleaved PARP-1) | percentage of cell invasion compared to control (PC-3 cells [2]) | PC-3 cell migration to the denuded zone (PC-3 cells [3])
CC(=O)O[C@H]1CC[C@@]2(C)C(=CC[C@@H]3[C@@H]2CC[C@]2(C)C(c4cccnc4)=CC[C@@H]32)C1 [AA, Abiraterone acetate, reference compound] | 2.97 | 2.45 | 2.69 | 27.5 | 7.62 | 20.2 | 1.47 |  |  |  |  |  |  | 
CC1=C(/C=C/C(C)=C/C=C/C(C)=C/C(=O)O)C(C)(C)CCC1 [ATRA, all-trans-retinoic acid, reference compound] | 25.1 | 47.9 | 39.8 |  | 36.3 | 75.3 | 11.7 |  |  |  |  |  |  | 
CC(O)(CS(=O)(=O)c1ccc(F)cc1)C(=O)Nc1ccc(C#N)c(C(F)(F)F)c1 (centres unmarked) [Casodex, reference compound] | 3.81 | 2.61 | 2.95 | 43.6 | 9.15 | 69.1 | 1.51 |  |  |  |  |  |  | 
CC1=C(/C=C/C(C)=C/C=C/C(C)=C/C(=O)Nc2ccc(O)cc2)C(C)(C)CCC1 [Compound 4-HPR, 4-hydroxyphenyl retinamide, reference compound] | 3.23 | 2.69 | 2.45 |  | 3.54 | 1.07 | 3.11 |  |  |  |  |  |  | 
CNC(=O)c1ccc(N2C(=S)N(c3ccc(C#N)c(C(F)(F)F)c3)C(=O)C2(C)C)cc1F [MDV3100, Enzalutamide, reference compound] |  |  |  |  |  | 17 | 1.54 | > 100 | no significant effect |  |  |  |  | 
CC1=C(/C=C/C(C)=C/C=C/C(C)=C/C(=O)O)C(C)(C)CCC1n1ccnc1 (centres unmarked) [VN/14-1] | 12.9 | 11.3 | 12.9 |  | 36.3 | 69.2 | 9.76 |  |  |  |  |  |  | 
CC1=C(/C=C/C(C)=C/C=C/C(C)=C/C(=O)Nc2ccc(O)cc2)C(C)(C)CCC1n1ccnc1 (centres unmarked) [VN/66-1] | 2.95 | 4.67 | 1.54 |  | 10.7 | 19.1 | 2.38 | 6.76 |  |  |  |  |  | 
CC1=C(/C=C/C(C)=C/C=C/C(C)=C/C(=O)NC(C)(C)C)C(C)(C)CCC1n1ccnc1 (centres unmarked) [VNLG-145] | 2.23 | 2.45 | 2.23 |  | 4.26 | 25.1 | 2.14 | 3.89 |  | 1.5 to 5.5 |  |  |  | 
CC1=C(/C=C/C(C)=C/C=C/C(C)=C/C(=O)Nc2cc(C(F)(F)F)ccc2C(F)(F)F)C(C)(C)CCC1n1ccnc1 (centres unmarked) [VNLG-146] | 39.8 | 57.5 | 52.5 |  | 57.5 | 63.1 | 11.7 |  |  |  | did not display any notable growth inhibitory effect or differential sensitivity |  |  | 
CC1=C(/C=C/C(C)=C/C=C/C(C)=C/C(=O)Nc2ccccc2O)C(C)(C)CCC1n1ccnc1 (centres unmarked) [VNLG-147] | 2.04 | 1.86 | 1.41 |  | 2.95 | 71.5 | 2.66 | 4.26 |  | 1.5 to 5.5 |  | greater efficacies | 33 | potentially suppressed
CC1=C(/C=C/C(C)=C/C=C/C(C)=C/C(=O)Nc2ncnc3[nH]cnc23)C(C)(C)CCC1n1ccnc1 (centres unmarked) [VNLG-148] | 39.8 | 22.9 | 19.1 |  | 36.3 | 43.6 | 15.5 |  |  |  | did not display any notable growth inhibitory effect or differential sensitivity |  |  | 
CC1=C(/C=C/C(C)=C/C=C/C(C)=C/C(=O)Nc2ccccc2)C(C)(C)CCC1n1ccnc1 (centres unmarked) [VNLG-153] | 2.23 | 3.23 | 2.69 |  | 4.36 | 39.8 | 2.97 | 7.41 |  | 1.5 to 5.5 |  |  | 35 | potentially suppressed
